Experiment: refractive index (Na D-line) (dimensionless); xn = mol fraction of the nth substance listed
Settings: 101 kPa, Liquid, Standard Abbe refractometry

CCOC(=O)C(C)O (stereo not drawn) [DL-ethyl lactate] + CN1CCCC1=O
refractive index
Settings | x1 = 0.0999 | x1 = 0.2 | x1 = 0.3001 | x1 = 0.4 | x1 = 0.4997 | x1 = 0.6 | x1 = 0.7002 | x1 = 0.7999 | x1 = 0.8997 | x1 = 1
288.15 K | 1.46662 | 1.46071 | 1.45507 | 1.44952 | 1.44392 | 1.43817 | 1.43232 | 1.42648 | 1.42076 | 1.41537
293.15 K | 1.46449 | 1.45857 | 1.4529 | 1.44734 | 1.44172 | 1.43597 | 1.43014 | 1.4243 | 1.41855 | 1.41307
298.15 K | 1.46235 | 1.45645 | 1.45078 | 1.4452 | 1.43956 | 1.4338 | 1.42795 | 1.42209 | 1.41631 | 1.41076
303.15 K | 1.46021 | 1.45431 | 1.44863 | 1.44302 | 1.43738 | 1.43161 | 1.42575 | 1.41988 | 1.41406 | 1.40843
308.15 K | 1.45809 | 1.45218 | 1.44646 | 1.44084 | 1.43516 | 1.42939 | 1.42354 | 1.41768 | 1.41183 | 1.4061
313.15 K | 1.45594 | 1.45005 | 1.44428 | 1.43859 | 1.43288 | 1.4271 | 1.42126 | 1.41542 | 1.40957 | 1.40374
318.15 K | 1.45386 | 1.44796 | 1.44218 | 1.43648 | 1.43073 | 1.4249 | 1.41902 | 1.41312 | 1.40722 | 1.40136
323.15 K | 1.45178 | 1.44586 | 1.44006 | 1.43431 | 1.42854 | 1.42269 | 1.41679 | 1.41086 | 1.40492 | 1.39898

CCOC(=O)C(C)O (stereo not drawn) [DL-ethyl lactate] + CCC(C)=O
refractive index
Settings | x1 = 0.0999 | x1 = 0.1999 | x1 = 0.3001 | x1 = 0.4001 | x1 = 0.5 | x1 = 0.5998 | x1 = 0.6999 | x1 = 0.8 | x1 = 0.9001 | x1 = 1
288.15 K | 1.3864 | 1.39058 | 1.39458 | 1.39808 | 1.40142 | 1.40472 | 1.40745 | 1.41049 | 1.41285 | 1.41571
293.15 K | 1.38393 | 1.38819 | 1.39209 | 1.39574 | 1.39914 | 1.40234 | 1.40537 | 1.40818 | 1.41078 | 1.41307
298.15 K | 1.38138 | 1.38566 | 1.38959 | 1.3933 | 1.39673 | 1.39997 | 1.40302 | 1.40585 | 1.40846 | 1.41076
303.15 K | 1.37882 | 1.38314 | 1.38712 | 1.39082 | 1.39428 | 1.39754 | 1.40061 | 1.40346 | 1.4061 | 1.40843
308.15 K | 1.37622 | 1.38055 | 1.38457 | 1.38833 | 1.39183 | 1.39511 | 1.39819 | 1.40105 | 1.40371 | 1.4061
313.15 K | 1.37361 | 1.37791 | 1.38199 | 1.38577 | 1.38931 | 1.39263 | 1.39575 | 1.39864 | 1.40133 | 1.40374
318.15 K | 1.37092 | 1.37524 | 1.37932 | 1.38316 | 1.38671 | 1.39001 | 1.39312 | 1.396 | 1.39886 | 1.40136
323.15 K | 1.36811 | 1.3724 | 1.3765 | 1.38033 | 1.38393 | 1.38737 | 1.39051 | 1.39348 | 1.39642 | 1.39898

CCOC(=O)C(C)O (stereo not drawn) [DL-ethyl lactate] + Cc1ccccc1
refractive index
Settings | x1 = 0.1001 | x1 = 0.2001 | x1 = 0.3 | x1 = 0.4 | x1 = 0.4998 | x1 = 0.6001 | x1 = 0.7 | x1 = 0.7999 | x1 = 0.9 | x1 = 1
288.15 K | 1.48891 | 1.47943 | 1.47043 | 1.46159 | 1.45318 | 1.44507 | 1.43735 | 1.42997 | 1.42267 | 1.41537
293.15 K | 1.48604 | 1.47659 | 1.46764 | 1.45886 | 1.45051 | 1.44249 | 1.43485 | 1.42751 | 1.42032 | 1.41307
298.15 K | 1.48316 | 1.47373 | 1.46482 | 1.45613 | 1.44784 | 1.43988 | 1.43231 | 1.42508 | 1.41794 | 1.41076
303.15 K | 1.4803 | 1.47091 | 1.46199 | 1.45336 | 1.44515 | 1.43728 | 1.4298 | 1.42263 | 1.41555 | 1.40843
308.15 K | 1.47745 | 1.46812 | 1.45914 | 1.45069 | 1.44254 | 1.43474 | 1.42731 | 1.42018 | 1.41313 | 1.4061
313.15 K | 1.47462 | 1.46532 | 1.45628 | 1.44801 | 1.4399 | 1.43218 | 1.4248 | 1.41773 | 1.4107 | 1.40374
318.15 K | 1.47184 | 1.46262 | 1.45368 | 1.44558 | 1.4376 | 1.42987 | 1.42243 | 1.41531 | 1.40819 | 1.40136
323.15 K | 1.46909 | 1.45995 | 1.45131 | 1.44313 | 1.43523 | 1.42752 | 1.42006 | 1.41291 | 1.40578 | 1.39898

Source: the NIST ThermoML archive (doi:10.1016/j.fluid.2015.04.017)
